{"source": "PubChem BioAssay AID1745844", "about": "(Carcinogenic Potency Database (CPDB), 2022)", "system": "rodent lifetime carcinogenesis bioassay, tumor incidence TD50", "assay": "chronic cancer bioassays in animals – CPDB, compiled studies (AID 1745844)", "note": "Active and inactive are the calls of the source. How the calls were made is not given here.", "data": [{"smiles": "CCCc1ccc2c(c1)OCO2", "values": [{"measurement": "TD50", "setting": "mouse, strain B6AKF1, females, oral dosing, site: any site (literature study), lesion: several types, types named in the paper, dosed 81 weeks, study length 81 weeks", "value": 305, "unit": "mg/kg/day"}, {"measurement": "TD50", "setting": "mouse, strain B6AKF1, females, oral dosing, site: liver, lesion: angioma, dosed 81 weeks, study length 81 weeks", "value": 1400, "unit": "mg/kg/day"}, {"measurement": "TD50", "setting": "mouse, strain B6AKF1, females, oral dosing, site: lung, lesion: adenoma, dosed 81 weeks, study length 81 weeks", "value": 739, "unit": "mg/kg/day"}, {"measurement": "TD50", "setting": "mouse, strain B6AKF1, females, oral dosing, site: stomach, lesion: papilloma, dosed 81 weeks, study length 81 weeks", "value": 84.7, "unit": "mg/kg/day"}, {"measurement": "TD50", "setting": "mouse, strain B6AKF1, males, oral dosing, site: any site (literature study), lesion: several types, types named in the paper, dosed 81 weeks, study length 81 weeks", "value": 86.6, "unit": "mg/kg/day"}, {"measurement": "TD50", "setting": "mouse, strain B6AKF1, males, oral dosing, site: liver, lesion: hepatoma, dosed 81 weeks, study length 81 weeks", "value": 117, "unit": "mg/kg/day"}, {"measurement": "TD50", "setting": "mouse, strain B6AKF1, males, oral dosing, site: lung, lesion: adenoma, dosed 81 weeks, study length 81 weeks", "value": 323, "unit": "mg/kg/day"}, {"measurement": "TD50", "setting": "mouse, strain B6AKF1, males, oral dosing, site: lung, lesion: several types, types named in the paper, dosed 81 weeks, study length 81 weeks", "value": 448, "unit": "mg/kg/day"}, {"measurement": "TD50", "setting": "mouse, strain B6C3F1, females, oral dosing, site: any site (literature study), lesion: several types, types named in the paper, dosed 81 weeks, study length 81 weeks", "value": 170, "unit": "mg/kg/day"}, {"measurement": "TD50", "setting": "mouse, strain B6C3F1, females, oral dosing, site: lung, lesion: adenoma, dosed 81 weeks, study length 81 weeks", "value": 230, "unit": "mg/kg/day"}, {"measurement": "TD50", "setting": "mouse, strain B6C3F1, males, oral dosing, site: any site (literature study), lesion: several types, types named in the paper, dosed 81 weeks, study length 81 weeks", "value": 107, "unit": "mg/kg/day"}, {"measurement": "TD50", "setting": "mouse, strain B6C3F1, males, oral dosing, site: liver, lesion: hepatoma, dosed 81 weeks, study length 81 weeks", "value": 90, "unit": "mg/kg/day"}, {"measurement": "TD50", "setting": "mouse, strain B6C3F1, males, oral dosing, site: lung, lesion: adenoma, dosed 81 weeks, study length 81 weeks", "value": 358, "unit": "mg/kg/day"}, {"measurement": "TD50", "setting": "rat, strain Osborne-Mendel, both sexes, in feed, site: esophagus, lesion: several types, types named in the paper, dosed 104 weeks, study length 104 weeks", "value": 143, "unit": "mg/kg/day"}]}, {"smiles": "Cc1cc2ncccc2c2nc(N)n(C)c12", "values": [{"measurement": "TD50", "setting": "mouse, strain C57BL/6NCrj, females, in feed, site: cecum, lesion: adenocarcinoma, dosed 85 weeks, study length 85 weeks", "value": 50, "unit": "mg/kg/day"}, {"measurement": "TD50", "setting": "mouse, strain C57BL/6NCrj, females, in feed, site: colon, lesion: adenocarcinoma, dosed 85 weeks, study length 85 weeks", "value": 92.8, "unit": "mg/kg/day"}, {"measurement": "TD50", "setting": "mouse, strain C57BL/6NCrj, females, in feed, site: large intestine, lesion: adenocarcinoma, dosed 85 weeks, study length 85 weeks", "value": 32.3, "unit": "mg/kg/day"}, {"measurement": "TD50", "setting": "mouse, strain C57BL/6NCrj, females, in feed, site: liver, lesion: fibrosarcoma, dosed 85 weeks, study length 85 weeks", "value": 20.7, "unit": "mg/kg/day"}, {"measurement": "TD50", "setting": "mouse, strain C57BL/6NCrj, females, in feed, site: liver, lesion: hepatocellular adenoma, dosed 85 weeks, study length 85 weeks", "value": 80, "unit": "mg/kg/day"}, {"measurement": "TD50", "setting": "mouse, strain C57BL/6NCrj, females, in feed, site: liver, lesion: hepatocellular carcinoma, dosed 85 weeks, study length 85 weeks", "value": 62.1, "unit": "mg/kg/day"}, {"measurement": "TD50", "setting": "mouse, strain CDF1, females, in feed, site: forestomach, lesion: several types, types named in the paper, dosed 91 weeks, study length 91 weeks", "value": 10.7, "unit": "mg/kg/day"}, {"measurement": "TD50", "setting": "mouse, strain CDF1, females, in feed, site: forestomach, lesion: squamous-cell carcinoma, dosed 91 weeks, study length 91 weeks", "value": 24.5, "unit": "mg/kg/day"}, {"measurement": "TD50", "setting": "mouse, strain CDF1, females, in feed, site: liver, lesion: hepatocellular carcinoma, dosed 91 weeks, study length 91 weeks", "value": 65.6, "unit": "mg/kg/day"}, {"measurement": "TD50", "setting": "mouse, strain CDF1, females, in feed, site: liver, lesion: several types, types named in the paper, dosed 91 weeks, study length 91 weeks", "value": 27.1, "unit": "mg/kg/day"}, {"measurement": "TD50", "setting": "mouse, strain CDF1, females, in feed, site: lung, lesion: several types, types named in the paper, dosed 91 weeks, study length 91 weeks", "value": "25.1 mg/kg/day (inactive)"}, {"measurement": "TD50", "setting": "mouse, strain CDF1, males, in feed, site: forestomach, lesion: several types, types named in the paper, dosed 91 weeks, study length 91 weeks", "value": 14.5, "unit": "mg/kg/day"}, {"measurement": "TD50", "setting": "mouse, strain CDF1, males, in feed, site: forestomach, lesion: squamous-cell carcinoma, dosed 91 weeks, study length 91 weeks", "value": 22.4, "unit": "mg/kg/day"}, {"measurement": "TD50", "setting": "mouse, strain CDF1, males, in feed, site: lung, lesion: several types, types named in the paper, dosed 91 weeks, study length 91 weeks", "value": "148 mg/kg/day (inactive)"}]}, {"smiles": "OCl", "values": [{"measurement": "carcinogen call", "setting": "mouse, strain B6C3F1, females, in drinking water, site: any site (literature study), lesion: several types, types named in the paper, dosed 103 weeks, study length 106 weeks", "value": "negative (inactive)"}, {"measurement": "carcinogen call", "setting": "mouse, strain B6C3F1, females, in drinking water, site: liver, lesion: hepatocellular carcinoma, dosed 103 weeks, study length 106 weeks", "value": "negative (inactive)"}, {"measurement": "carcinogen call", "setting": "mouse, strain B6C3F1, females, in drinking water, site: liver, lesion: several types, types named in the paper, dosed 103 weeks, study length 106 weeks", "value": "negative (inactive)"}, {"measurement": "TD50", "setting": "mouse, strain B6C3F1, females, in drinking water, site: lung, lesion: several types, types named in the paper, dosed 103 weeks, study length 106 weeks", "value": "22900 mg/kg/day (inactive)"}, {"measurement": "TD50", "setting": "mouse, strain B6C3F1, males, in drinking water, site: any site (literature study), lesion: several types, types named in the paper, dosed 103 weeks, study length 106 weeks", "value": "350 mg/kg/day (inactive)"}, {"measurement": "carcinogen call", "setting": "mouse, strain B6C3F1, males, in drinking water, site: liver, lesion: hepatocellular carcinoma, dosed 103 weeks, study length 106 weeks", "value": "negative (inactive)"}, {"measurement": "TD50", "setting": "mouse, strain B6C3F1, males, in drinking water, site: liver, lesion: several types, types named in the paper, dosed 103 weeks, study length 106 weeks", "value": "876 mg/kg/day (inactive)"}, {"measurement": "TD50", "setting": "mouse, strain B6C3F1, males, in drinking water, site: lung, lesion: several types, types named in the paper, dosed 103 weeks, study length 106 weeks", "value": "2040 mg/kg/day (inactive)"}, {"measurement": "TD50", "setting": "rat, strain F344/DuCrj, females, in drinking water, site: liver, lesion: several types, types named in the paper, dosed 104 weeks, study length 112 weeks", "value": "6300 mg/kg/day (inactive)"}, {"measurement": "carcinogen call", "setting": "rat, strain F344/DuCrj, males, in drinking water, site: liver, lesion: cholangioma, dosed 104 weeks, study length 112 weeks", "value": "negative (inactive)"}, {"measurement": "carcinogen call", "setting": "rat, strain F344/DuCrj, males, in drinking water, site: liver, lesion: fibrous histiocytoma, dosed 104 weeks, study length 112 weeks", "value": "negative (inactive)"}, {"measurement": "carcinogen call", "setting": "rat, strain F344/DuCrj, males, in drinking water, site: liver, lesion: several types, types named in the paper, dosed 104 weeks, study length 112 weeks", "value": "negative (inactive)"}]}]}
